In patent publication US20050163755A1, “Methods and compositions related to 1-caldesmon” (priority 2003, published 2005):

How the values were obtained:
Type in all cases: cell-based, avian
[1] = tested on: DF-1 cells; test: Transcellular resistance of confluent monolayers on microelectrode (adenovirus system); conditions: 3 μM cytochalasin D vs virus at MOI of 200
Experimental: Quantitative transcellular impedance measurements were acquired in real-time using a previously reported technique of inoculating cultured cells grown on the surface of microelectrodes coated with 100 μg/ml of fibronectin (Moy et al., 2002, Moy et al., 1998, Moy et al., 1996, Moy et al., 2000). A 1-volt, 4000 Hz AC signal was supplied through a 1-M Ω resistor to approximate a constant-current source. Voltage and phase data were measured with a SRS830 lock-in amplifier (Stanford Instruments) and then later stored and processed with a personal computer. The in-phase voltage, proportional to the resistance, and the out-of-phase voltage, proportional to the capacitive reactance, were measured. For most situations, resistance is reported because it is most sensitive to cytoskeletal-membrane properties. […] A uniform number of viable cells (˜650,000 cells per sample), which was determined by the amount of cells that excluded trypan blue, were inoculated on the electrode to control for the effect of cell viability. Transcellular resistance was measured as a fractional change and normalized to the cell resistance of wild-type DF-1 cells. Transcellular resistance was measured at 15 hours for inter-subject comparisons—a time point at which transcellular resistance was at steady state. […]

[2] = tested on: DF-1 cells; test: Numerical modeling of transcellular impedance (α, Rb, Cm); conditions: 3 μM cytochalasin D, wild-type DF-1 cells
Description: A numerical analysis was used to calculate specific cell-cell and cell-substrate adhesion and membrane capacitance based on the measured transcellular impedance. The procedure is described in more detail elsewhere for endothelial cells (Moy et al., 2002, Moy et al., 2000), fibroblasts (Giaever and Keese, 1991), and for epithelial cells (Lo et al., 1995). The total impedance across a cell-covered electrode is composed of the impedance created between the ventral surface of the cell and the electrode (related to α and due to cell-matrix adhesion), the impedance created between cells (indicated by Rb and due to cell-cell adhesion), the transcellular impedance created from transcellular current conduction (Zm) and the impedance of a naked electrode (Zn). For these calculations, Zm is inversely related to membrane capacitance (Cm), which is dependent upon membrane convolution, which, in turn, is dependent on the cortical cytoskeleton. The data was expressed as a ratio of the real or imaginary measurement of cell-covered electrode to a naked electrode as a function of current frequency between 25 to 60,000 Hz. A calculated real and imaginary value was generated from the solutions of α, Rb and Cm obtained from a multi-response Levenberg-Maquardt non-linear optimization model of the real, imaginary, real and imaginary (in complex form) and real and imaginary (in magnitude form) data. An error evaluation was calculated using a Chi square analysis of the squared sum of the calculated and the experimental residuals as a function of current frequency. […]
Using a previously reported mathematical model, it was next evaluated whether the difference in 1-CaD-mediated change in transcellular resistance was due to effects on cell-cell, cell-matrix adhesion, membrane capacitance or a combination of all three. […] A calculated resistance and capacitance was generated from iterative solutions of α, Rb and Cm obtained from a multi-response Levenberg-Maquardt non-linear optimization model of the real and/or imaginary data. […]

[3] = tested on: DF-1 cells; test: Cell viability assay, trypan blue; conditions: 48 hrs, 200 MOI virus or 3 μM cytochalasin D
Experimental: Cultured cells were transfected with Ad-CaD or the controlled virus using a calcium phosphate co-precipitation technique. Cells were washed free of virus and incubated for additional 48 hours in serum containing medium. Transfected cells were exposed to trypan blue dye and the fraction of viable cells was quantitated. Viability of cells transfected with Ad-CaD and controlled virus was compared to the cell viability measured in monolayers exposed to cytochalasin for the same corresponding period.

[4] = tested on: DF-1 cells; test: In vitro wound closure assay to measure cell motility; conditions: mechanical wounding
Experimental: DF-1 cell motility was measured by wounding the cell monolayer and measuring wound closure by monitoring the traversed distance over time. DF-1 cells were plated at 70% confluence on glass cover slips coated with 100 μg/ml of fibronectin. These cells were then transfected with Ad-CaD or Ad-empty and allowed to grow to 100% confluence (2 days post-transfection). A wound was made in the monolayer using a sterile pipette tip with an outer diameter of 300 μm. The same area was captured sequentially at time intervals of 0, 1, 3, and 6 hours under phase contrast microscopy. The migrated distance was assessed at 3 locations that were separated by equal distance. Cell motility was determined as the average velocity for the 3 measurements for each time point. […]
It was next evaluated whether human wild-type 1-CaD expression disturbs cytopathic effects such as wound closure. Cell motility in response to mechanical wounding was measured to address this question. […] Cultured monolayers were subjected to mechanical wounding with a glass pipette and time-lapse images of cell motility were recorded over a period of several hours. Each image was equally divided into 3 regions, and the leading edge of cell migration was measured for each time point. Cell motility for each time point was determined as the average velocity measured for each of 3 regions. […]

[5] = tested on: DF-1 cells; test: Prestress force: constitutive isometric tension on collagen membranes; conditions: 3 μM cytochalasin D
Experimental: Prestress was determined by the measured loss of constitutive isometric tension in response to cytochalasin D. Isometric tension was measured in cultured DF-1 cells inoculated on the surface of polymerized type 1 collagen membranes as described by Bodmer (1997). Isometric tension was simultaneously monitored in 2 separate isometric vectors to account for the presence of anisotropic tension. Constitutive tension was measured in cell-collagen lattices under unloaded conditions. To determine the optimal length-tension relationship during the unloaded state, the collagen gel was stretched with a micromanipulator that was attached to the transducer until a 10 mg increase in force was observed. The gel was progressively unloaded until no further decline in preload was observed. The length (Carson et al., 1989) of the gel was chosen as the no-load state. […] The constitutive tension was defined as the measured loss in tension upon the addition of cytochalasin D.
Since expression of wild-type human 1-CaD stabilizes membrane capacitance, it was next asked whether this enhancement was attributed to a reduction in myosin ATPase activity. […] Constitutive tension was measured under isometric no-load conditions in order to be consistent with the mechanical state at which transcellular resistance was measured. […]

Structure (SMILES): C=C1[C@@H](C)[C@H]2[C@H](Cc3ccccc3)NC(=O)[C@]23[C@H](OC(C)=O)/C=C/[C@@](C)(O)C(=O)[C@@H](C)C/C=C/[C@H]3[C@@H]1O [Cytochalasin D]
- Transcellular resistance [1]: greater loss in transcellular resistance than cells transfected with Ad-CaD or controlled virus
- Cm (membrane capacitance) [2]: statistically significant increase in Cm
- Rb (cell-cell adhesion) [2]: decrease in α and Rb
- α (cell-matrix adhesion) [2]: decrease in α and Rb
- Cell viability / cell death [3]: decreased cell viability in a statistically significant manner
- Wound repair [4]: completely inhibited wound repair
- Constitutive tension [5]: abolished constitutive tension
